How the values were obtained:
Bc YpdA (Bdr) = target: T1, Bc YpdA (Bdr) (Bacillus cereus, UniProt Q81FS4); assay: NADPH consumption at […] nm; format: biochemical; settings: anaerobic
T1 construct: gene BC_1495; expressed and purified; FAD-containing; biological homotetramer; tag details only in supplement
T1 sequence (Q81FS4 1-326): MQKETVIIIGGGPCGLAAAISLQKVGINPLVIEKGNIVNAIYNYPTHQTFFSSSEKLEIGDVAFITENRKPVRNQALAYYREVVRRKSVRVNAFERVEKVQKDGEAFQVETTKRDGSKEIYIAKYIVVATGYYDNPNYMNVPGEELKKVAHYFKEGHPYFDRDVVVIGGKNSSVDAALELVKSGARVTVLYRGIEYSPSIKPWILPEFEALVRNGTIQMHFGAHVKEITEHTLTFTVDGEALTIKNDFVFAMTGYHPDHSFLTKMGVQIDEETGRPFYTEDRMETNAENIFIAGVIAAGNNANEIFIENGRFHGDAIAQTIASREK

Sa YpdA (Bdr) [1] = target: T2, Sa YpdA (Bdr) (Staphylococcus aureus, UniProt A0A0H2WWS2); assay: NADPH consumption at […] nm; format: biochemical; settings: NADPH as co-substrate; anaerobic
T2 construct: gene SACOL1520; expressed and purified; FAD-containing; biological homotetramer; tag details only in supplement
T2 sequence (A0A0H2WWS2 1-328): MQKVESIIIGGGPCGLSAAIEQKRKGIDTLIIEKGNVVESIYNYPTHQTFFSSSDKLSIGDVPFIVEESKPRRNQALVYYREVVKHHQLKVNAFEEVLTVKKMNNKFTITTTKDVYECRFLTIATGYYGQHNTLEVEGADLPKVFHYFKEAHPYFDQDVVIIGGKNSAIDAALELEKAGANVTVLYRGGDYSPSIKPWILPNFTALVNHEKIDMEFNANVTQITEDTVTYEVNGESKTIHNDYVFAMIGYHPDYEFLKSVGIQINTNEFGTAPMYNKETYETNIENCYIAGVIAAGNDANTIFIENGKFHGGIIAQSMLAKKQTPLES

Sa YpdA (Bdr) [2] = target: T2, Sa YpdA (Bdr); assay: X-ray crystallography; format: binding

SMILES: N[C@@H](CSSC[C@H](N)C(=O)N[C@H]1[C@@H](O[C@@H](CC(=O)O)C(=O)O)O[C@H](CO)[C@@H](O)[C@@H]1O)C(=O)N[C@H]1[C@@H](O[C@@H](CC(=O)O)C(=O)O)O[C@H](CO)[C@@H](O)[C@@H]1O [BSSB]
- NADPH consumption at 340 nm (Bc YpdA (Bdr); NADPH as co-substrate): YpdAs from Bc and Sa are both able to reduce BSSB
- NADPH consumption at 340 nm (Sa YpdA (Bdr) [1]): YpdAs from Bc and Sa are both able to reduce BSSB

SMILES: Cc1cc2nc3c(=O)[nH]c(=O)nc-3n(C[C@H](O)[C@H](O)[C@H](O)COP(=O)(O)OP(=O)(O)OC[C@H]3O[C@@H](n4cnc5c(N)ncnc54)[C@H](O)[C@@H]3O)c2cc1C [FAD]
- X-ray crystallography (Sa YpdA (Bdr) [2]; bound cofactor, 2.9 and 3.1 A resolution): Monomer structure alignment of Bc and Sa YpdA, displaying the NADPH and FAD binding domains

SMILES: NC(=O)C1=CN([C@@H]2O[C@H](COP(=O)(O)OP(=O)(O)OC[C@H]3O[C@@H](n4cnc5c(N)ncnc54)[C@H](OP(=O)(O)O)[C@@H]3O)[C@@H](O)[C@H]2O)C=CC1 [NADPH]
- NADPH consumption at 340 nm (Bc YpdA (Bdr); BSSB as co-substrate): both Sa and Bc YpdAs can reduce BSSB with a rate of consumption of NADPH
- X-ray crystallography (Sa YpdA (Bdr) [2]; NADPH not added, co-purified, bound in chains C, D and F, FAD present): we observed in both Sa YpdA structures electron density for bound NADPH
